Assay results from paper PMC12021451 (Planta Medica, 2025).
Where a name gives a salt, the structure may show the parent alone.

Test: blood-to-plasma concentration ratio
Type: in vitro ADME, human
Settings: range of 4 to 1000 ng/mL

SMILES	Effect of the compound concentration on the Rb value
CN(C)CCCN1c2ccccc2CCc2ccccc21 [Imipramine, imipramine hydrochlorid]	not observed
C/C=C1/C[C@@H](C)[C@](O)(CO)C(=O)OCC2=CC[N@@+]3([O-])CC[C@@H](OC1=O)[C@@H]23 [Retrorsine N -oxide]	no concentration dependency was observed
Cn1c(=O)c2c(ncn2C)n(C)c1=O [Caffeine]	not observed
